Data taken from patent US12162893B2 (Erasca, Inc., priority 2020, dated 2024).

Biological target: T1, mutant G12C K-RAS (Homo sapiens, UniProt P01116, G12C)
T1 construct: made in house; host or cells: E. coli BL21
Test: covalent adduct formation (CAF) with mutant G12C K-RAS
Format: binding
Design: CAF: unit not given here
Details: for CAF: Table 3, Pyridone Core-Morpholine Unsubstituted; for % CAF @ 10 uM, 1 h: Table 5; for % CAF @ 10 μM,1 h: Table 6
Experimental: Embodiments disclosed herein are further illustrated by the following examples in Tables 1-4 and the Examples hereinbelow. The Tables indicate the compound number, structure, the observed mass spectral molecular weight peak, and covalent adduct formation (CAF) with a mutant G12C K-RAS after 60 minutes at a concentration of 10 micromolar.

[1] = after 60 minutes at 10 micromolar

SMILES	% CAF @ 10 μM,1 h	also measured
C=CC(=O)N1C[C@H](C)N(c2cc(=O)n3c4c(c(-c5ccc(F)cc5F)c(Cl)cc24)OCC3)C[C@H]1C [Example 44, 7-((2S,5R)-4-acryloyl-2,5-dimethylpiperazin-1-yl)-9-chloro-10-(2,4-difluorophenyl)-2H-[1,4]oxazino[2,3,4-ij]quinolin-5(3H)-one]		CAF [1]: 4.2
C=CC(=O)N1CCN(c2cc(=O)n3c4c(c(-c5c(O)cccc5F)ccc24)CCC3)CC1 [Example 45, 1-(4-acryloylpiperazin-1-yl)-8-(2-fluoro-6-hydroxyphenyl)-6,7-dihydropyrido[3,2,1-ij]quinolin-3(5H)-one]		CAF [1]: 1
C=CC(=O)N1CCN(c2cc(=O)n3c4c(c(-c5c(C)ccc6[nH]ncc56)ccc24)CCC3)CC1 [Example 46, 1-(4-acryloylpiperazin-1-yl)-8-(5-methyl-1H-indazol-4-yl)-6,7-dihydropyrido[3,2,1-ij]quinolin-3(5H)-one]		CAF [1]: 12
C=CC(=O)N1CCN(c2cc(=O)n3c4c(c(-c5ccc(F)cc5F)ccc24)CCC3)CC1 [Example 47, 1-(4-acryloylpiperazin-1-yl)-8-(2,4-difluorophenyl)-6,7-dihydropyrido[3,2,1-ij]quinolin-3(5H)-one]		CAF [1]: 2
C=CC(=O)N1CCN(c2cc(=O)n3c4c(c(-c5c(C)ccc6[nH]nc(C)c56)ccc24)CCC3)CC1 [Example 48, 1-(4-acryloylpiperazin-1-yl)-8-(3,5-dimethyl-1H-indazol-4-yl)-6,7-dihydropyrido[3,2,1-ij]quinolin-3(5H)-one]		CAF [1]: 1
C=CC(=O)N1C[C@H](C)N(c2c(C#N)c(=O)n3c4c(c(-c5c(O)cccc5F)c(Cl)cc24)OC[C@@H]3CN(C)C)C[C@H]1C [Example 49, (3S)-7-((2S,5R)-4-acryloyl-2,5-dimethylpiperazin-1-yl)-9-chloro-3-((dimethylamino)methyl)-10-(2-fluoro-6-hydroxyphenyl)-5-oxo-3,5-dihydro-2H-[1,4]oxazino[2,3,4-ij]quinoline-6-carbonitrile]		% CAF (60 min) (Table 4, Pyridone Core-Morpholine Substituted, after 60 minutes at 10 micromolar): 0%
C=CC(=O)N1CCN(c2nc(=O)n3c4c(c(-c5ccc(F)cc5F)c(Cl)cc24)SC[C@H]3CN2CCN(CC(F)F)CC2)[C@@H](C)C1 [Example 70, (3R)-7-((S)-4-acryloyl-2-methylpiperazin-1-yl)-9-chloro-3-((4-(2,2-difluoroethyl)piperazin-1-yl)methyl)-10-(2,4-difluorophenyl)-2,3-dihydro-5H-[1,4]thiazino[2,3,4-ij]quinazolin-5-one]		% CAF @ 10 uM, 1 h: 94%
C=CC(=O)N1CCN(c2nc(=O)n3c4c(c(-c5ccc(F)cc5F)c(C(F)(F)F)cc24)SCC3)C2CS(=O)(=O)CC21 (centres unmarked) [Example 100, 7-(4-acryloyl-6,6-dioxidohexahydrothieno[3,4-b]pyrazin-1(2H)-yl)-10-(2,4-difluorophenyl)-9-(trifluoromethyl)-2,3-dihydro-5H-[1,4]thiazino[2,3,4-ij]quinazolin-5-one]		% CAF @ 10 uM, 1 h: 94%
C=CC(=O)N1CCN(c2nc(=O)n3c4c(c(-c5ccc(F)cc5F)c(Cl)cc24)SCC3)[C@H](CC#N)C1 [Example 117, 2-((2R)-4-acryloyl-1-(9-chloro-10-(2,4-difluorophenyl)-5-oxo-2,3-dihydro-5H-[1,4]thiazino[2,3,4-ij]quinazolin-7-yl)piperazin-2-yl)acetonitrile]		% CAF @ 10 uM, 1 h: 75.6%
C=CC(=O)N1C[C@H](C)N(c2nc(=O)n3c4c(c(-c5c(C)ccc6cnn(C)c56)ccc24)OCC3)C[C@H]1C [Example 194, 7-((2S,5R)-4-acryloyl-2,5-dimethylpiperazin-1-yl)-10-(1,6-dimethyl-1H-indazol-7-yl)-2,3-dihydro-5H-[1,4]oxazino[2,3,4-ij]quinazolin-5-one]	2.5%	
C=CC(=O)N1CCN(c2nc(=O)n3c4c(c(-c5c(O)cccc5F)c(Cl)cc24)OC[C@@H]3CN2CCOCC2)[C@@H](C)C1 [Example 195, (3S,10R)-7-((S)-4-acryloyl-2-methylpiperazin-1-yl)-9-chloro-10-(2-fluoro-6-hydroxyphenyl)-3-(morpholinomethyl)-2,3-dihydro-5H-[1,4]oxazino[2,3,4-ij]quinazolin-5-one]	0%	
C=CC(=O)N1CCN(c2nc(=O)n3c4c(c(-c5c(O)cccc5F)c(Cl)cc24)OC[C@@H]3CN2CCOCC2)[C@@H](C)C1 [Example 196, (3S,10S)-7-((S)-4-acryloyl-2-methylpiperazin-1-yl)-9-chloro-10-(2-fluoro-6-hydroxyphenyl)-3-(morpholinomethyl)-2,3-dihydro-5H-[1,4]oxazino[2,3,4-ij]quinazolin-5-one]	97.6%	
C=CC(=O)N1C[C@H](C)N(c2nc(=O)n3c4c(c(-c5ccccc5C(F)(F)F)c(Cl)cc24)OCC3)C[C@H]1C [Example 197, 7-((2S,5R)-4-acryloyl-2,5-dimethylpiperazin-1-yl)-9-chloro-10-(2-(trifluoromethyl)phenyl)-2,3-dihydro-5H-[1,4]oxazino[2,3,4-ij]quinazolin-5-one]	0%	
C=CC(=O)N1CCN(c2nc(=O)n3c4c(c(-c5c(O)cccc5F)c(Cl)cc24)OC[C@H]3CN2CCOCC2)[C@@H](C)C1 [Example 198, (3R,10S)-7-((S)-4-acryloyl-2-methylpiperazin-1-yl)-9-chloro-10-(2-fluoro-6-hydroxyphenyl)-3-(morpholinomethyl)-2,3-dihydro-5H-[1,4]oxazino[2,3,4-ij]quinazolin-5-one]	100%	
C=CC(=O)N1CCN(c2nc(=O)n3c4c(c(-c5c(O)cccc5F)c(Cl)cc24)OC[C@H]3CN2CCOCC2)[C@@H](C)C1 [Example 199, (3R,10R)-7-((S)-4-acryloyl-2-methylpiperazin-1-yl)-9-chloro-10-(2-fluoro-6-hydroxyphenyl)-3-(morpholinomethyl)-2,3-dihydro-5H-[1,4]oxazino[2,3,4-ij]quinazolin-5-one]	0%	
C=CC(=O)N1C[C@H](C)N(c2nc(=O)n3c4c(c(-c5c(F)cccc5C(F)F)ccc24)OCC3)C[C@H]1C [Example 200, 7-((2S,5R)-4-acryloyl-2,5-dimethylpiperazin-l-yl)-10-(2-(difluoromethyl)-6-fluorophenyl)-2,3-dihydro-5H-1,4|oxazino[2,3,4-ij]quinazolin-5-one]	0%	
C=CC(=O)N1C[C@H](C)N(c2nc(=O)n3c4c(c(-c5c(F)ccc6[nH]cnc56)ccc24)OCC3)C[C@H]1C [Example 201, 7-((2S,5R)-4-acryloyl-2,5-dimethylpiperazin-1-yl)-10-(5-fluoro-1H-benzo[d]imidazol-4-yl)-2,3-dihydro-5H-[1,4]oxazino[2,3,4-ij]quinazolin-5-one]	0%	
C=CC(=O)N1C[C@H](C)N(c2nc(=O)n3c4c(c(-c5ccc(F)cc5F)c(Cl)cc24)OC[C@@H]3CN2CCOCC2)C[C@H]1C [Example 203, (3S)-7-((2S,5R)-4-acryloyl-2,5-dimethylpiperazin-1-yl)-9-chloro-10-(2,4-difluorophenyl)-3-(morpholinomethyl)-2H-[1,4]oxazino[2,3,4-ij]quinazolin-5(3H)-one]	84.3%	
C=CC(=O)N1C[C@H](C)N(c2nc(=O)n3c4c(c(-c5ccc(F)cc5F)c(Cl)cc24)OC[C@H]3CN2CCOCC2)C[C@H]1C [Example 204, (3R)-7-((2S,5R)-4-acryloyl-2,5-dimethylpiperazin-1-yl)-9-chloro-10-(2,4-difluorophenyl)-3-(morpholinomethyl)-2H-[1,4]oxazino[2,3,4-ij]quinazolin-5(3H)-one]	82%	
C=CC(=O)N1C[C@H](C)N(c2nc(=O)n3c4c(c(-c5cc(Cl)ccc5F)c(Cl)cc24)OC[C@H]3CN2CCC(F)(F)C2)C[C@H]1C [Example 206, (3R)-7-((2S,5R)-4-acryloyl-2,5-dimethylpiperazin-1-yl)-9-chloro-10-(5-chloro-2-fluorophenyl)-3-((3,3-difluoropyrrolidin-1-yl)methyl)-2,3-dihydro-5H-[1,4]oxazino[2,3,4-ij]quinazolin-5-one]	10.7%	
C=CC(=O)N1C[C@H](C)N(c2nc(=O)n3c4c(c(-c5cc(Cl)ccc5F)c(Cl)cc24)OC[C@@H]3CN2CCOCC2)C[C@H]1C [Example 211, (3S)-7-((2S,5R)-4-acryloyl-2,5-dimethylpiperazin-1-yl)-9-chloro-10-(5-chloro-2-fluorophenyl)-3-(morpholinomethyl)-2,3-dihydro-5H-[1,4]oxazino[2,3,4-ij]quinazolin-5-one]	77.4%	
C=CC(=O)N1C[C@H](C)N(c2nc(=O)n3c4c(c(-c5cc(Cl)ccc5F)c(Cl)cc24)OC[C@H]3CN2CCOCC2)C[C@H]1C [Example 212, (3R)-7-((2S,5R)-4-acryloyl-2,5-dimethylpiperazin-1-yl)-9-chloro-10-(5-chloro-2-fluorophenyl)-3-(morpholinomethyl)-2H-[1,4]oxazino[2,3,4-ij]quinazolin-5(3H)-one]	59.8%	
C=CC(=O)N1C[C@H](C)N(c2nc(=O)n3c4c(c(-c5ccc(F)cc5F)c(Cl)cc24)OC[C@H]3CCN2CCOCC2)C[C@H]1C [Example 213, (3R)-7-((2S,5R)-4-acryloyl-2,5-dimethylpiperazin-1-yl)-9-chloro-10-(2,4-difluorophenyl)-3-(2-morpholinoethyl)-2H-[1,4]oxazino[2,3,4-ij]quinazolin-5(3H)-one]	90.6%	
